Reference: the supplement of paper PMC13380429
± gives the standard deviation of the averaged measurements.

How the values were obtained:
Settings in all cases: 72 h
Calu-3 [1] = experiment: relative viability EC50 (midpoint between 100% and the lowest measured viability); higher = less toxic
U2OS [2] = experiment: as above
Vero E6 [3] = experiment: as above
Caco-2 [4] = experiment: as above
HepG2 [5] = experiment: as above
Calu-3 [6] = experiment: cell viability relative to DMSO; higher = less toxic
U2OS [7] = experiment: as above
Vero E6 [8] = experiment: as above
Caco-2 [9] = experiment: as above
HepG2 [10] = experiment: as above
Calu-3 [11] = experiment: drug sensitivity score (DSS) for viability; higher = more toxic; extreme values may be limits of the assay
U2OS [12] = experiment: as above
Vero E6 [13] = experiment: as above
Caco-2 [14] = experiment: as above
HepG2 [15] = experiment: as above

Row | SMILES | relative viability EC50 (Calu-3 [1]) [µM] | relative viability EC50 (U2OS [2]) [µM] | relative viability EC50 (Vero E6 [3]) [µM] | relative viability EC50 (Caco-2 [4]) [µM] | relative viability EC50 (HepG2 [5]) [µM] | cell viability (Calu-3 [6]; 1 nM) [%] | cell viability (Calu-3 [6]; 10 nM) [%] | cell viability (Calu-3 [6]; 100 nM) [%] | cell viability (Calu-3 [6]; 1000 nM) [%] | cell viability (Calu-3 [6]; 10000 nM) [%] | cell viability (U2OS [7]; 1 nM) [%] | cell viability (U2OS [7]; 10 nM) [%] | cell viability (U2OS [7]; 100 nM) [%] | cell viability (U2OS [7]; 1000 nM) [%] | cell viability (U2OS [7]; 10000 nM) [%] | cell viability (Vero E6 [8]; 1 nM) [%] | cell viability (Vero E6 [8]; 10 nM) [%] | cell viability (Vero E6 [8]; 100 nM) [%] | cell viability (Vero E6 [8]; 1000 nM) [%] | cell viability (Vero E6 [8]; 10000 nM) [%] | cell viability (Caco-2 [9]; 1 nM) [%] | cell viability (Caco-2 [9]; 10 nM) [%] | cell viability (Caco-2 [9]; 100 nM) [%] | cell viability (Caco-2 [9]; 1000 nM) [%] | cell viability (Caco-2 [9]; 10000 nM) [%] | cell viability (HepG2 [10]; 1 nM) [%] | cell viability (HepG2 [10]; 10 nM) [%] | cell viability (HepG2 [10]; 100 nM) [%] | cell viability (HepG2 [10]; 1000 nM) [%] | cell viability (HepG2 [10]; 10000 nM) [%] | drug sensitivity score (Calu-3 [11]) | drug sensitivity score (U2OS [12]) | drug sensitivity score (Vero E6 [13]) | drug sensitivity score (Caco-2 [14]) | drug sensitivity score (HepG2 [15])
1 | CCCC(C(=O)OCCN(CC)CC)(c1ccccc1)c1ccccc1 [proadifen] | > 10 | > 10 | > 10 | > 10 | > 10 | 99.3 | 93.1 | 101 | 105 | 99.6 | 93 | 97.9 | 99.1 | 102 | 98.5 | 97.9 | 96 | 98.4 | 97.3 | 99.8 | 89.8 | 101 | 102 | 101 | 87.9 | 101 | 100 | 92.6 | 95 | 88.1 | 0 | 0 | 0 | 0 | 0
2 | CCN(CC)CCNC(=O)c1ccc(N)cc1 [procainamide] | > 10 | > 10 | > 10 | > 10 | > 10 | 105 | 110 | 93.5 | 99.5 | 98.7 | 94.9 | 97.9 | 98.8 | 101 | 100 | 95.9 | 97.4 | 92.6 | 94.1 | 106 | 88.5 | 97.6 | 96.1 | 105 | 101 | 99.9 | 115 | 107 | 102 | 106 | 0 | 0 | 0 | 0 | 0
3 | COc1ccc2nc3cc(Cl)ccc3c(Nc3cc(CN4CCCC4)c(O)c(CN4CCCC4)c3)c2n1 [pyronaridine] | 3.54 | 3.34 | 2.93 | 1.87 | 2.38 | 102 | 111 | 95.5 | 104 | 46.4 | 98.3 | 104 | 97.2 | 102 | 31.7 | 104 | 102 | 108 | 96.7 | 0.1 | 99.2 | 95.8 | 100 | 87.9 | 29.4 | 105 | 87 | 99.8 | 90.5 | -0.1 | 2.5 | 3.6 | 6 | 5.9 | 7.1
4 | CO[C@H]1/C=C/O[C@@]2(C)Oc3c(C)c(O)c4c(O)c(cc(O)c4c3C2=O)NC(=O)/C(C)=C\C=C\[C@H](C)[C@H](O)[C@@H](C)[C@@H](O)[C@@H](C)[C@H](OC(C)=O)[C@@H]1C [rifamycin-sv] | > 10 | > 10 | > 10 | > 10 | > 10 | 89.1 | 90.3 | 106 | 96.5 | 97 | 101 ± 2.6 | 102 ± 3.1 | 100 | 105 ± 2.8 | 100 ± 1.8 | 99.5 ± 3.5 | 96.8 ± 1.3 | 99.4 ± 2.4 | 97.2 ± 2.3 | 99.3 ± 4.4 | 102.6 ± 0.71 | 101 ± 1.5 | 103 ± 2.9 | 103 ± 4.1 | 95.8 ± 5.3 | 99.2 ± 5.4 | 92.7 ± 7.1 | 110 ± 4 | 88 ± 5.7 | 92.2 ± 7.7 | 0 | 0 | 0 | 0 | 0.25 ± 0.35
5 | C/C=C1\NC(=O)[C@H]2CSSCC/C=C/[C@H](CC(=O)N[C@H](C(C)C)C(=O)N2)OC(=O)[C@H](C(C)C)NC1=O [romidepsin] | 0.0068 | 0.0117 | 0.217 | 0.0451 | 0.0052 | 92.5 | 39.4 | 8.7 | 6.3 | 2.5 | 96.9 | 55.5 | 5.6 | 0.5 | 0.2 | 98.1 | 102 | 87.8 | 0.1 | -0.1 | 104 | 124 | 6.6 | 1.4 | 0.2 | 87.1 | 31.9 | 0.5 | -0.4 | 0.1 | 37 | 35.1 | 20 | 28.5 | 39.4
6 | CN1CCN(c2nc(C3=C(c4c[nH]c5ccccc45)C(=O)NC3=O)c3ccccc3n2)CC1 [sotrastaurin] | > 10 | > 10 | > 10 | > 10 | > 10 | 101 | 94.6 | 96 | 97.6 | 98.6 | 95.6 | 94 | 103 | 95 | 94.1 | 96.1 | 99.4 | 100 | 99.3 | 101 | 96.3 | 102 | 99.1 | 86.8 | 89.7 | 108 | 107 | 101 | 104 | 92.6 | 0 | 0 | 0 | 0.9 | 0
7 | CCCCNc1ccc(C(=O)OCCN(C)C)cc1 [tetracaine] | > 10 | > 10 | > 10 | > 10 | > 10 | 107 | 101 | 98.2 | 98.4 | 108 | 104 | 97.4 | 98.7 | 98.2 | 102 | 107 | 105 | 103 | 101 | 99.5 | 101 | 92.7 | 105 | 100 | 101 | 99.5 | 99.3 | 104 | 104 | 94.3 | 0 | 0 | 0 | 0 | 0
8 | CCCCS(=O)(=O)N[C@@H](Cc1ccc(OCCCCC2CCNCC2)cc1)C(=O)O [tirofiban] | > 10 | > 10 | > 10 | > 10 | > 10 | 94.5 | 84.1 | 96.3 | 105 | 110 | 95.5 | 98.5 | 98.7 | 101 | 105 | 94.8 | 93.5 | 93.7 | 86.3 | 101 | 94 | 99.9 | 98.3 | 104 | 107 | 99.1 | 102 | 104 | 91.5 | 99.6 | 0 | 0 | 0 | 0 | 0
9 | Cc1c(Cl)cccc1Nc1ccccc1C(=O)O [tolfenamic-acid] | > 10 | > 10 | > 10 | > 10 | > 10 | 98.8 | 96.3 | 92.7 | 92.4 | 101 | 98.9 | 95 | 101 | 101 | 98.8 | 98.1 | 103 | 90.4 | 98.8 | 101 | 95.7 | 99 | 102 | 96.4 | 107 | 98.4 | 111 | 106 | 110 | 103 | 0 | 0 | 0 | 0 | 0
10 | COc1ccc2c(C(=S)N(C)CC(=O)O)cccc2c1C(F)(F)F [tolrestat] | > 10 | > 10 | > 10 | > 10 | > 10 | 103 | 100 | 94.5 | 107 | 98.6 | 94.7 | 98.4 | 96.5 | 98 | 99.1 | 94.7 | 95.9 | 93.5 | 91.2 | 96.8 | 92.9 | 95.8 | 90.6 | 98.9 | 89.3 | 91.2 | 98.6 | 94.9 | 94.2 | 103 | 0 | 0 | 0 | 0 | 0
11 | CN1CCc2c(c3ccccc3n2Cc2ccc(C(=O)NO)cc2)C1 [tubastatin-A] | > 10 | > 10 | > 10 | > 10 | 2.02 | 108 | 93.5 | 99.6 | 89.9 | 81.5 | 102 | 97 | 99.3 | 89.2 | 84 | 98.7 | 102 | 101 | 102 | 78.3 | 97.2 | 91.2 | 99 | 93.3 | 88.9 | 107 | 104 | 90.1 | 90.9 | 36.9 | 1.2 | 1 | 0.6 | 0 | 5
12 | CCOC(=O)C1=C[C@]2(CC)CCCN3CCc4c(n1c1ccccc41)[C@@H]32 [vinpocetine] | > 10 | > 10 | > 10 | > 10 | > 10 | 106 | 95.9 | 94 | 105 | 98.3 | 97.6 | 101 | 102 | 101 | 101 | 98.8 | 87.7 | 95.9 | 91.8 | 107 | 92 | 96.7 | 91.7 | 98.4 | 104 | 97.7 | 94 | 99.7 | 89.7 | 108 | 0 | 0 | 0 | 0 | 0
13 | Cc1c(C)c2c(c(C)c1O)CC[C@@](C)(CCC[C@H](C)CCC[C@H](C)CCCC(C)C)O2 [vitamin-E] | > 10 | > 10 | > 10 | > 10 | > 10 | 98.9 | 82.6 | 102 | 99.3 | 91.7 | 99.9 | 95.1 | 103 | 94.9 | 97.2 | 86.5 | 99.4 | 88.5 | 101 | 103 | 101 | 89.8 | 97.1 | 94.8 | 98.5 | 93.6 | 100 | 91 | 106 | 108 | 0 | 0 | 0 | 0 | 0
14 | Cc1cc(C(C)(C)C)cc(C)c1CC1=NCCN1 [xylometazoline] | > 10 | > 10 | > 10 | > 10 | > 10 | 98.6 | 92.4 | 108 | 92 | 108 | 98.5 | 93.2 | 102 | 97.3 | 103 | 112 | 98.2 | 97.3 | 112 | 89.8 | 100 | 74.7 | 99.8 | 97.6 | 105 | 107 | 93.4 | 89.6 | 116 | 101 | 0 | 0 | 0 | 0 | 0
